Experimental data reported in PubChem BioAssay AID330 (DTP/NCI, 2004).
Values joined by “and” are separate entries in the source; they are usually repeats but may differ in a detail not shown here. Identical values can stand only once. Toxic doses and inconclusive results are not listed.

System: P388 leukemia ip, CD2F1 mice, survival T/C
Test: NCI In Vivo Anticancer Drug Screen. Data for tumor model P388 Leukemia (intraperitoneal) in CD2F1 (CDF1) mice
Conditions: endpoint: median survival time, higher = longer survival
Summary of the method: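 Mice carrying the transplanted tumor received test compound or vehicle. Survival was recorded in each group, and the value is the treated-group measurement divided by that of the vehicle-treated control group.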

[1] = dose: 60.0 mg/kg/injection, schedule: Q01DX005 (ip), vehicle: saline with Tween-80
[2] = dose: 120.0 mg/kg/injection, schedule: Q01DX005 (ip), vehicle: saline with Tween-80
[3] = dose: 240.0 mg/kg/injection, schedule: Q01DX005 (ip), vehicle: saline with Tween-80
[4] = dose: 100.0 mg/kg/injection, schedule: Q01DX001 (ip), vehicle: saline with Tween-80
[5] = dose: 200.0 mg/kg/injection, schedule: Q01DX001 (ip), vehicle: saline with Tween-80
[6] = dose: 400.0 mg/kg/injection, schedule: Q01DX001 (ip), vehicle: saline with Tween-80
[7] = dose: 25.0 mg/kg/injection, schedule: Q01DX009 (ip), vehicle: saline
[8] = dose: 50.0 mg/kg/injection, schedule: Q01DX009 (ip), vehicle: saline
[9] = dose: 100.0 mg/kg/injection, schedule: Q01DX009 (ip), vehicle: saline
[10] = dose: 50.0 mg/kg/injection, schedule: Q01DX009 (ip), vehicle: Klucel (hydroxypropylcellulose) (HPC)
[11] = dose: 100.0 mg/kg/injection, schedule: Q01DX009 (ip), vehicle: Klucel (hydroxypropylcellulose) (HPC)
[12] = dose: 200.0 mg/kg/injection, schedule: Q01DX009 (ip), vehicle: Klucel (hydroxypropylcellulose) (HPC)
[13] = dose: 3.12 mg/kg/injection, schedule: Q01DX009 (ip), vehicle: saline
[14] = dose: 6.25 mg/kg/injection, schedule: Q01DX009 (ip), vehicle: saline
[15] = dose: 12.5 mg/kg/injection, schedule: Q01DX009 (ip), vehicle: saline
[16] = dose: 50.0 mg/kg/injection, schedule: Q01DX009 (ip), vehicle: saline with Tween-80
[17] = dose: 100.0 mg/kg/injection, schedule: Q01DX009 (ip), vehicle: saline with Tween-80
[18] = dose: 200.0 mg/kg/injection, schedule: Q01DX009 (ip), vehicle: saline with Tween-80
[19] = dose: 25.0 mg/kg/injection, schedule: Q04DX003 (ip), vehicle: saline
[20] = dose: 50.0 mg/kg/injection, schedule: Q04DX003 (ip), vehicle: saline
[21] = dose: 200.0 mg/kg/injection, schedule: Q01DX009 (ip), vehicle: saline
[22] = dose: 100.0 mg/kg/injection, schedule: Q04DX003 (ip), vehicle: saline

Compound: CCOCCOCCOC(C)Oc1ccc(Br)cc1 (stereo not given)
- T/C [1]: 104 % of control
- T/C [2]: 100 % of control
- T/C [3]: 104 % of control

Compound: CCOc1c(N=Nc2cccc(Cl)c2)c(-c2ccccc2)nn1C(N)=S
- T/C (dose: 50.0 mg/kg/injection, schedule: Q01DX005 (ip), vehicle: saline with Tween-80): 111 % of control
- T/C (dose: 100.0 mg/kg/injection, schedule: Q01DX005 (ip), vehicle: saline with Tween-80): 101 % of control
- T/C (dose: 200.0 mg/kg/injection, schedule: Q01DX005 (ip), vehicle: saline with Tween-80): 96 % of control

Compound: Cc1ccc([N+](=O)[O-])cc1NC(=O)NNC(=O)CNC(=O)Nc1cccc(C(F)(F)F)c1
- T/C [1]: 95 % of control
- T/C [2]: 96 % of control
- T/C [3]: 100 % of control

Compound: CC(C)P(C(C)C)C(C)C
- T/C [4]: 104 % of control
- T/C [5]: 104 % of control
- T/C [6]: 95 % of control

Compound: CC(=O)OCc1cc[n+](C)cc1
- T/C (dose: 12.5 mg/kg/injection, schedule: Q01DX009 (ip), vehicle: water): 100 % of control
- T/C (dose: 25.0 mg/kg/injection, schedule: Q01DX009 (ip), vehicle: water): 105 % of control
- T/C (dose: 50.0 mg/kg/injection, schedule: Q01DX009 (ip), vehicle: water): 101 % of control
- T/C (dose: 100.0 mg/kg/injection, schedule: Q01DX009 (ip), vehicle: water): 102 % of control
- T/C (dose: 200.0 mg/kg/injection, schedule: Q01DX009 (ip), vehicle: water): 93 % of control
- T/C (dose: 400.0 mg/kg/injection, schedule: Q01DX009 (ip), vehicle: water): 112 % of control

Compound: Oc1ccc2c(c1)[C@]13CCCCC1[C@H](C2)N(Cc1ccoc1)CC3 (stereo not given in full)
- T/C [7]: 97 % of control
- T/C [8]: 99 % of control and 103 % of control
- T/C [9]: 99 % of control

Compound: N/C=C1\Cc2ccccc2C1=O
- T/C (dose: 50.0 mg/kg/injection, schedule: Q01DX009 (ip), vehicle: suspension in saline): 95 % of control
- T/C (dose: 100.0 mg/kg/injection, schedule: Q01DX009 (ip), vehicle: suspension in saline): 98 % of control
- T/C (dose: 200.0 mg/kg/injection, schedule: Q01DX009 (ip), vehicle: suspension in saline): 104 % of control

Compound: Clc1cccc(Cl)c1CSc1nc2ccccc2n2cccc12
- T/C [10]: 102 % of control
- T/C [11]: 105 % of control
- T/C [12]: 105 % of control

Compound: O=C(Oc1cccc2cccnc12)c1ccc2ccccc2n1
- T/C (dose: 100.0 mg/kg/injection, schedule: Q04DX002 (ip), vehicle: saline with Tween-80): 100 % of control
- T/C (dose: 200.0 mg/kg/injection, schedule: Q04DX002 (ip), vehicle: saline with Tween-80): 96 % of control

Compound: NC1=NC(c2ccccc2Cl)CC(c2cc3ccccc3o2)=N1 (stereo not given)
- T/C [4]: 92 % of control
- T/C [5]: 89 % of control
- T/C [6]: 100 % of control

Compound: CCCCCCCC[N+]1(CC)CCCCC1
- T/C [13]: 104 % of control
- T/C [14]: 109 % of control
- T/C [15]: 109 % of control

Compound: CCCCCCOC(=O)c1cccc(N)c1
- T/C [10]: 100 % of control
- T/C [11]: 106 % of control
- T/C [12]: 102 % of control

Compound: COc1cc2c(c(OC)c1OC)-c1ccc(SC)c(=O)cc1[C@@H](NC1OC(CO)C(O)C(O)C1O)CC2 (stereo not given in full)
- T/C [13]: 107 % of control and 111 % of control
- T/C (dose: 3.13 mg/kg/injection, schedule: Q01DX009 (ip), vehicle: saline): 115 % of control
- T/C [14]: 118 % of control [middle of 4 runs]
- T/C [15]: 123 % of control
- T/C [7]: 118 % of control and 122 % of control

Compound: O=C(c1ccccc1)C(O)NC(=S)c1ccc(Cl)cc1 (stereo not given)
- T/C [16]: 107 % of control
- T/C [17]: 113 % of control
- T/C [18]: 113 % of control

Compound: COc1cc(C2SCC(=O)N2c2nnc(C)s2)cc(OC)c1OC (stereo not given)
- T/C (dose: 50.0 mg/kg/injection, schedule: Q01DX005 (ip), vehicle: Klucel (hydroxypropylcellulose) (HPC)): 97 % of control
- T/C (dose: 100.0 mg/kg/injection, schedule: Q01DX005 (ip), vehicle: Klucel (hydroxypropylcellulose) (HPC)): 89 % of control
- T/C (dose: 200.0 mg/kg/injection, schedule: Q01DX005 (ip), vehicle: Klucel (hydroxypropylcellulose) (HPC)): 89 % of control

Compound: COc1cc2c3cc1Oc1c(O)c(OC)cc4c1[C@H](Cc1ccc(O)c(c1)Oc1ccc(cc1)C[C@H]3N(C)CC2)N(C)CC4
- T/C (dose: 37.5 mg/kg/injection, schedule: Q01DX009 (ip), vehicle: Klucel (hydroxypropylcellulose) (HPC)): 98 % of control

Compound: COc1ccc(CCNCC(O)c2ccc(C)s2)cc1OC (stereo not given)
- T/C [15]: 100 % of control
- T/C [7]: 86 % of control
- T/C [8]: 101 % of control and 86 % of control
- T/C [9]: 98 % of control

Compound: CCc1nc2ccccc2c(=O)n1C
- T/C (dose: 12.5 mg/kg/injection, schedule: Q01DX009 (ip), vehicle: saline with Tween-80): 100 % of control
- T/C (dose: 25.0 mg/kg/injection, schedule: Q01DX009 (ip), vehicle: saline with Tween-80): 100 % of control
- T/C [16]: 95 % of control

Compound: COCCN(CCOC)C1C2=C(CCCC2)OS(=O)(=O)C1c1ccccc1 (stereo not given)
- T/C (dose: 60.0 mg/kg/injection, schedule: Q01DX005 (ip), vehicle: Klucel (hydroxypropylcellulose) (HPC)): 101 % of control
- T/C (dose: 120.0 mg/kg/injection, schedule: Q01DX005 (ip), vehicle: Klucel (hydroxypropylcellulose) (HPC)): 105 % of control
- T/C (dose: 240.0 mg/kg/injection, schedule: Q01DX005 (ip), vehicle: Klucel (hydroxypropylcellulose) (HPC)): 104 % of control

Compound: NN(C(=O)c1ccccc1)C1CCCCC1
- T/C (dose: 12.5 mg/kg/injection, schedule: Q04DX003 (ip), vehicle: saline): 95 % of control
- T/C [19]: 104 % of control
- T/C [20]: 100 % of control

Compound: NNc1ncc(S(=O)(=O)Cc2ccc3c(c2)OCO3)c(N)n1
- T/C (dose: 100.0 mg/kg/injection, schedule: Q01DX001 (ip), vehicle: saline): 101 % of control
- T/C (dose: 200.0 mg/kg/injection, schedule: Q01DX001 (ip), vehicle: saline): 98 % of control
- T/C (dose: 400.0 mg/kg/injection, schedule: Q01DX001 (ip), vehicle: saline): 98 % of control

Compound: CC(C)NC(=O)OCc1c(COC(=O)NC(C)C)c2n(c1Br)CCC2
- T/C (dose: 25.0 mg/kg/injection, schedule: Q01DX005 (ip), vehicle: saline with Tween-80): 186 % of control

Compound: Cc1cc(Nc2ccc(C(=O)N/N=C/c3ccc(N(CCCl)CCCl)cc3)cc2)nc2ccc(Cl)cc12
- T/C [8]: 90 % of control
- T/C [9]: 91 % of control
- T/C [21]: 87 % of control

Compound: CN(C)CCOC(c1ccccc1)c1ccccc1
- T/C [19]: 100 % of control
- T/C [20]: 100 % of control
- T/C [22]: 108 % of control

Compound: CC(=N)C1C(=O)C=C(C)OC1=O (stereo not given)
- T/C [8]: 86 % of control
- T/C [9]: 88 % of control
- T/C [21]: 88 % of control

Compound: COC1=CCC(Cc2ccc[nH]2)=CC1
- T/C (dose: 100.0 mg/kg/injection, schedule: Q01DX001 (ip), vehicle: distilled water + Tween-80 + alcohol): 98 % of control
- T/C (dose: 200.0 mg/kg/injection, schedule: Q01DX001 (ip), vehicle: distilled water + Tween-80 + alcohol): 105 % of control
- T/C (dose: 400.0 mg/kg/injection, schedule: Q01DX001 (ip), vehicle: distilled water + Tween-80 + alcohol): 107 % of control

Compound: O=S(=O)(OCCCl)c1ccc(F)cc1
- T/C [16]: 109 % of control
- T/C [17]: 101 % of control
- T/C [18]: 100 % of control

Compound: CCS/C(C#N)=C(/OC)c1ccccc1Cl
- T/C [16]: 89 % of control
- T/C [17]: 94 % of control

Compound: O=C1c2ccccc2OCC1CS(=O)(=O)CC1COc2ccccc2C1=O (stereo not given)
- T/C [22]: 98 % of control
- T/C (dose: 200.0 mg/kg/injection, schedule: Q04DX003 (ip), vehicle: saline): 97 % of control
- T/C (dose: 400.0 mg/kg/injection, schedule: Q04DX003 (ip), vehicle: saline): 91 % of control

Compound: CC(=O)Nc1ccc(S(=O)(=O)NC2C(O)OC(CO)C(O)C2O)cc1 (stereo not given)
- T/C (dose: 50.0 mg/kg/injection, schedule: Q01DX005 (ip), vehicle: saline): 95 % of control
- T/C (dose: 100.0 mg/kg/injection, schedule: Q01DX005 (ip), vehicle: saline): 105 % of control
- T/C (dose: 200.0 mg/kg/injection, schedule: Q01DX005 (ip), vehicle: saline): 97 % of control
